From the METLIN SMRT retention time set (Domingo-Almenara et al. 2019)

Assay: gradient 5% acetonitrile 3 min, to 50% in 2 min, to 85% in 15 min, held 3 min, 100 µL/min
Conditions: column: Zorbax Extend-C18 2.1 x 50 mm; eluents: water / acetonitrile, 0.1% formic acid
In short: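 In both positive and negative ionization mode, a quadrupole time-of-flight mass spectrometer coupled to HPLC analyzed pure standards run in mixtures of ~100 molecules. The Zorbax Extend-C18 column (2.1 × 50 mm, 1.8 μm) was operated at 100 μL/min with water and acetonitrile, each containing 0.1% formic acid. The dead volume was 40 μL and the dwell volume 900 μL. Retention time came from adduct peaks that were computationally picked and individually inspected by hand.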

Question: For `COCCNC(=O)c1cc(-c2ccc(C)c(C)c2)[nH]c1C`, which RP-LC retention time is on record?
Answer: The RP-LC retention time was 772 s.

Question: For `COc1ccc([N+](=O)[O-])cc1NC(=O)Cc1ccc(S(C)(=O)=O)cc1`, which RP-LC retention time is on record?
Answer: The RP-LC retention time was 695 s.

Question: For `Cc1noc(C2CN(C(=O)Nc3ccc(C)c(F)c3)CC23CCOCC3)n1` (centres undefined), which RP-LC retention time is on record?
Answer: Its RP-LC retention time is 776 s.

Question: With `CN(CCC#N)C(=O)Cn1nc(Cc2cccnc2)c2ccccc2c1=O` as the compound, how does the RP-LC retention time read?
Answer: Its RP-LC retention time is 563 s.

Question: With `CCN1C(=O)COc2ccc(-c3noc(-c4ccccc4)n3)cc21` as the compound, how does the RP-LC retention time read?
Answer: The RP-LC retention time was 1140 s.

Question: With `COCCNC(=O)Cc1c(C)n(C)c2nc(-c3ccccc3)nn2c1=O` as the compound, how does the RP-LC retention time read?
Answer: The RP-LC retention time was 633 s.

Question: For `CCNC(=O)N(CC(=O)N1CCc2sccc2C1COc1ccccc1)CC1CC1` (centres undefined), which RP-LC retention time is on record?
Answer: The RP-LC retention time was 857 s.

Question: With `CCNC(=O)C1CCCN(C(=O)Nc2ccc(NC(=O)Nc3ccc(C)c(C)c3)cc2)C1` (centres undefined) as the compound, how does the RP-LC retention time read?
Answer: The RP-LC retention time was 748 s.

Question: Which RP-LC retention time does the source give for `Cc1ccc(C(=O)N2CC(c3nc(CCOCC4CC4)no3)C2)s1` here?
Answer: Its RP-LC retention time is 806 s.

Question: With `COc1cc(OC)cc(C(=O)NCC(=O)Nc2nc3ccccc3[nH]2)c1` as the compound, how does the RP-LC retention time read?
Answer: The RP-LC retention time was 635 s.

Question: Which RP-LC retention time does the source give for `c1csc(-c2nc(-c3ccc4c(c3)ncn4CCN3CCCC3)no2)c1` here?
Answer: The RP-LC retention time was 614 s.

Question: Which RP-LC retention time does the source give for `COC(=O)c1ccccc1NC(=O)c1cnc2c(c1)c(=O)n(C)c(=O)n2-c1ccccc1` here?
Answer: Its RP-LC retention time is 1030 s.

Question: For `CCN1CCN(C(=O)C2CCCN(S(=O)(=O)c3cc(-c4noc(C)n4)cs3)C2)CC1` (centres undefined), which RP-LC retention time is on record?
Answer: Its RP-LC retention time is 612 s.

Question: With `Cc1nn(C(C)C(=O)NCCCN2CCCCC2)c(=O)c2c(-n3cccc3)n(-c3ccccc3)nc12` (centres undefined) as the compound, how does the RP-LC retention time read?
Answer: The RP-LC retention time was 700 s.

Question: For `Cc1sc(-c2cc(C(F)(F)F)on2)cc1S(=O)(=O)N1CCN(c2cccc(Cl)c2)CC1`, which RP-LC retention time is on record?
Answer: The RP-LC retention time was 1440 s.

Question: With `COc1ccc(Cl)c(Nc2nc3ccccc3nc2NS(=O)(=O)c2cccc(NC(=O)C(C)(C)N)c2)c1` as the compound, how does the RP-LC retention time read?
Answer: The RP-LC retention time was 879 s.

Question: With `Cc1nnc(NC(=O)C2CCN(C(=O)c3cccc(F)c3)CC2)s1` as the compound, how does the RP-LC retention time read?
Answer: The RP-LC retention time was 661 s.

Question: With `CSc1ncccc1-c1nc(-c2ccc3c(c2)ncn3CCN2CCCCC2)no1` as the compound, how does the RP-LC retention time read?
Answer: Its RP-LC retention time is 649 s.

Question: With `COc1ccc(NC(=O)C2CC(=O)N(CCc3c[nH]c4ccc(F)cc34)C2)cc1` (centres undefined) as the compound, how does the RP-LC retention time read?
Answer: The RP-LC retention time was 758 s.

Question: For `CCN(CC)CCNc1ncnc2onc(-c3cccc(Cl)c3)c12`, which RP-LC retention time is on record?
Answer: Its RP-LC retention time is 660 s.

Question: Which RP-LC retention time does the source give for `CC(C)Oc1ccc(-c2noc(Cn3c(=O)n(-c4ccccc4)c(=O)c4sccc43)n2)cc1` here?
Answer: The RP-LC retention time was 1100 s.

Question: With `CCc1noc(-c2nnn3c2COC(c2ccc(OC)cc2)C3)n1` (centres undefined) as the compound, how does the RP-LC retention time read?
Answer: The RP-LC retention time was 941 s.

Question: Which RP-LC retention time does the source give for `O=C(NCc1cccc(Br)c1)c1cn2ccccc2n1` here?
Answer: The RP-LC retention time was 730 s.

Question: For `COc1ccc(CC(=O)NCCc2nc3cccnc3n2C)cc1`, which RP-LC retention time is on record?
Answer: The RP-LC retention time was 581 s.

Question: Which RP-LC retention time does the source give for `O=C1CC(c2ccc3c(c2)OCO3)c2c(c(C(=O)O)cn2-c2cccc(F)c2)N1` (centres undefined) here?
Answer: The RP-LC retention time was 777 s.

Question: For `CC(C)CN1Cc2ccccc2-n2ccnc2C12CCN(C(=O)c1ccccc1F)CC2`, which RP-LC retention time is on record?
Answer: The RP-LC retention time was 650 s.

Question: For `O=C(Cn1ccnc1)N1CCCCC1c1nncn1Cc1ccccc1` (centres undefined), which RP-LC retention time is on record?
Answer: Its RP-LC retention time is 579 s.

Question: Which RP-LC retention time does the source give for `Cc1cccc(CNS(=O)(=O)c2ccc(-c3c(C)noc3C)cc2)c1` here?
Answer: Its RP-LC retention time is 983 s.

Question: Which RP-LC retention time does the source give for `CC(C)Cn1c(=O)c(N2CCN(C(=O)c3ccccc3Cl)CC2)nc2ccncc21` here?
Answer: Its RP-LC retention time is 682 s.

Question: With `O=C(NCC1CCCO1)C(=O)NCC1(O)CCOCC1` (centres undefined) as the compound, how does the RP-LC retention time read?
Answer: Its RP-LC retention time is 540 s.

Question: Which RP-LC retention time does the source give for `COc1cccc(NC(=O)N2CCCC2c2nc(-c3cccc(OC)c3)no2)c1` (centres undefined) here?
Answer: Its RP-LC retention time is 947 s.

Question: Which RP-LC retention time does the source give for `Nc1cc(C(F)(F)F)c(-c2cc(N3CCOCC3)nc(N3CCOCC3)n2)cn1` here?
Answer: The RP-LC retention time was 650 s.

Question: With `COc1ccc(-c2cc(=O)n(CC(=O)Nc3nc4c(s3)CCCC4)cn2)cc1` as the compound, how does the RP-LC retention time read?
Answer: The RP-LC retention time was 762 s.

Question: With `CCOC(=O)c1ccc(NC(=O)c2cc3c(=O)n(C)c4ccccc4n3n2)cc1` as the compound, how does the RP-LC retention time read?
Answer: The RP-LC retention time was 981 s.

Question: For `COc1ccc(-c2nc3ncc4c(=O)n(CCc5c[nH]c6ccc(F)cc56)ccc4n3n2)cc1`, which RP-LC retention time is on record?
Answer: The RP-LC retention time was 935 s.

Question: Which RP-LC retention time does the source give for `O=C(NCc1cccs1)c1ccc(-c2cccnc2)nc1` here?
Answer: Its RP-LC retention time is 614 s.

Question: Which RP-LC retention time does the source give for `CCCn1cc(C2=CCN(S(=O)(=O)c3cccc(Cl)c3)CC2)c2cccnc21` here?
Answer: The RP-LC retention time was 1110 s.

Question: With `Cc1ccc(C)c(S(=O)(=O)NCc2ccc(C(=O)N3CCCCC3C)cc2)c1` (centres undefined) as the compound, how does the RP-LC retention time read?
Answer: Its RP-LC retention time is 961 s.

Question: With `CN1C(=O)C2CCCCN2c2ccc(C(=O)N3CCN(Cc4ccc5c(c4)OCO5)CC3)cc21` (centres undefined) as the compound, how does the RP-LC retention time read?
Answer: Its RP-LC retention time is 638 s.

Question: For `Cc1cc(C)c(NC(=O)Cn2nc3n(c2=O)CCCC3)c(C)c1`, which RP-LC retention time is on record?
Answer: Its RP-LC retention time is 684 s.

Question: Which RP-LC retention time does the source give for `COc1ccc(NC(=O)Nc2ccc3c(c2)CCN3S(=O)(=O)c2ccc(C)cc2)cc1` here?
Answer: Its RP-LC retention time is 953 s.

Question: Which RP-LC retention time does the source give for `COc1ccccc1N1CCN(CCN2C(=O)CC3(CCCC3)CC2=O)CC1` here?
Answer: Its RP-LC retention time is 733 s.

Question: For `O=C(O)c1cc2cc(Cl)ccc2[nH]1`, which RP-LC retention time is on record?
Answer: Its RP-LC retention time is 740 s.

Question: With `COc1ccc(NC(=O)c2ccc(C(=N)N(C)C)cc2)c(C(=O)Nc2ccc(Cl)cn2)c1` as the compound, how does the RP-LC retention time read?
Answer: The RP-LC retention time was 725 s.
